Test results from US9353152B2, “Induction of the mitochondrial permeability transition” (NewSouth Innovations Pty Limited, priority 2002, dated 2016).
Several values for one entry are separate records, joined by “and”; a condition that tells them apart may be missing. Equal entries are not always repeated.

Key:
MPTP = molecular target: T1, MPTP (Rattus norvegicus, UniProt Q09073); assay type: biochemical
T1 construct: Mitochondria were isolated from the livers of ˜250 g male Wistar rats; from tissue; host or cells: rat liver mitochondria (male Wistar rats)
T1 sequence (Q09073 2-298 limits assumed): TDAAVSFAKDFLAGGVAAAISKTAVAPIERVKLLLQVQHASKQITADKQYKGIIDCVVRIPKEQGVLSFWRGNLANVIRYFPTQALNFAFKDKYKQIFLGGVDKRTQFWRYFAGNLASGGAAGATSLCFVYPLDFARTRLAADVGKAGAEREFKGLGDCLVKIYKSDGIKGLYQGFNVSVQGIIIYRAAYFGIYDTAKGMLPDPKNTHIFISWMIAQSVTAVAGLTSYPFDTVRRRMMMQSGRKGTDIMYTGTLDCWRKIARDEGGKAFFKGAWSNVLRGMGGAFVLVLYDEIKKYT

[1] = Titration of arsenoxide compounds with DTT; assay type: physicochemical; conditions: GSAO versus Compound 1
[2] = molecular target: T2, mitochondrial permeability transition pore (Rattus norvegicus, UniProt Q09073); assay type: biochemical; conditions: for a given concentration
T2 construct: Mitochondria were isolated from the livers of ˜250 g male Wistar rats; from tissue; host or cells: rat liver mitochondria (male Wistar rats)
T2 sequence (Q09073 2-298 limits assumed): T1 sequence (Q09073 2-298 limits assumed)

BAE cells [3] = assay: Cell proliferation and viability assay (MTT); assay type: cell-based, bovine
Experimental: (§1) BAE or human pancreatic carcinoma BxPC-3 cells were seeded at a density of 10^3 cells per well into 96 well plates in DMEM containing 10% foetal bovine serum and allowed to adhere for 24 h. Cells were washed and incubated with DMEM containing 10% foetal bovine serum and GSAO or o-GSAO and cultured for a further 48 h. Some BAE cells were arrested for 24 h in medium containing 0.25% serum and cultured for a further 48 h in medium containing 0.25% or 10% serum, in the presence of GSAO or o-GSAO. Viable attached cells were determined using MTT.

[4] = system: human pancreatic carcinoma BxPC-3 cells; assay: Cell proliferation and viability assay (MTT); assay type: cell-based; conditions: Homo sapiens, BXPC-3; 10% serum, 48 h; read-out: IC50 for proliferation arrest of BxPC-3 cells
Experimental: as §1

[5] = Toxicity of o-GSAO in Balb-C mice; assay type: in vivo
Experimental: FIG. 22. Toxicity of o-GSAO. Balb-C mice (6-8 week old, 3 per group) were treated subcutaneously with 1 or 10 mg/kg/day of o-GSAO in 0.1 mL of PBS. The data points are the mean±SE of the mice weights.

[6] = Side-effects in Balb-C nude mice bearing BxPC-3 tumours; assay type: in vivo
Experimental: Female 7 to 9 week old Balb C nude were used (UNSW Biological Resource Centre). Mice were held in groups of 3 to 5 at a 12 h day and night cycle and were given animal chow and water ad libidum. A suspension of 2.5×10^6 BxPC-3 cells in 0.2 mL of PBS was injected subcutaneously in the proximal midline. Tumours were allowed to establish and grow to a size of ˜40 mm^3 after which they were randomised into four groups. Tumour volume was calculated using the relationship, a·b^2·0.52, where a is the longest and b the shortest diameter. Animals were treated with either GSAO or o-GSAO at a dose 1 or 10 mg/kg/day in 0.1 mL of PBS. The compounds were administered subcutaneously at a site distant from the tumour. Tumour volume and animal weight was measured every 2 or 3 days.
Balb-C nude mice bearing ˜40 mm^3 BxPC-3 tumours were randomised into four groups (n=10 or 11 per group) and treated subcutaneously with either GSAO (part A) or o-GSAO (part B) at 1 or 10 mg/kg/day in 0.1 mL of PBS. Parts C and D are the mice weights for the respective groups, where the arrow indicates start of treatment. The data points are the mean±SE of the tumour volumes or mice weights. Treatment with 10 mg/kg o-GSAO (part B) was stopped at day 14 due to necrosis and inflammation at sites of injection in 7 out of 11 mice (3/11 with severe ulcers, 4/11 with medium ulcers).

BAE cells [7] = system: BAE cells
BAE cells [8] = assay: cells; conditions: Bos taurus, read-out: IC50 (μM)*
ANT = molecular target: T3, ANT (Rattus norvegicus, UniProt Q09073); assay: Binding of GSAO-B to ANT (streptavidin pull-down, Western blot); conditions: 100 μM GSAO-B, 1 h; competed by 4-fold molar excess of dimercaptopropanol
T3 construct: Mitochondria were isolated from the livers of ˜250 g male Wistar rats; from tissue; host or cells: rat liver mitochondria (male Wistar rats)
T3 sequence (Q09073 2-298 limits assumed): T1 sequence (Q09073 2-298 limits assumed)
Experimental: Rat liver mitochondria were suspended at 1 mg of protein per mL at 25° C. in 3 mM HEPES-KOH, pH 7.0 buffer containing 213 mM mannitol, 71 mM sucrose and 10 mM sodium succinate and incubated with 100 μM GSAO-B in absence or presence of 400 μM 2,3-dimercaptopropanol (Fluka, Buchs, SG, Switzerland) at room temperature on a rotating wheel for 1 h. The labelled mitochondria were washed three times with PBS and sonicated in 0.3 mL of ice-cold 25 mM Tris, pH 7.4 buffer containing 140 mM NaCl, 2.7 mM KCl, 0.5% Triton X-100, 0.05% Tween-20, 10 μM leupeptin, 10 μM aprotinin, 50 μg·mL^−1 […] and 5 mM EDTA. Lysate was clarified by centrifugation at 18000 g for 10 min at 4° C. and incubated with 30 μL of streptavidin-dynabeads (Dynal, Oslo, Norway) for 60 min at 4° C. on a rotating wheel to isolate the biotin-labelled proteins. The beads were washed 5 times with sonication buffer and the biotin-labelled proteins were released from the beads by boiling in 30 μl of SDS-Laemmli buffer for 2 minutes. Samples were resolved on 8-16% gradient iGels under reducing conditions and transferred to PVDF membrane. Proteins were detected by Western blot using a 1:500 dilution of goat anti-human ANT polyclonal antibody (Santa Cruz Biotechnology, Santa Cruz, Calif.) and 1:2000 dilution of rabbit anti-goat peroxidase-conjugated antibodies (Dako, Carpinteria, Calif.).

[9] = 10 mg/kg/day o-GSAO s.c., day 14

NC(CCC(=O)NC(CSCC(=O)Nc1ccccc1[As](O)O)C(=O)NCC(=O)O)C(=O)O (stereo not drawn) [Compound 1, NH2-Glu-Cys-(CH2CONH—C6H4-o-As{OH}2)-Gly-OH]
MPTP Swelling Rate Increase/GSAO* Mean (MPTP): 16.3 | arsenical reactivity (titration with DTT) [1]: no significant difference | half-time for maximal swelling, times faster compared to GSAO [2]: 3-5 times | times more effective than GSAO at inhibiting proliferation of BAE cells (BAE cells [3]): ~50 times | selectivity for proliferating versus growth-quiescent endothelial cells (BAE cells [3]; 0.25% or 10% serum, 48 h): not selective for proliferating (angiogenic) endothelial cells | IC50 (BAE cells [3]; Bos taurus, 10% serum, 48 h, read-out: IC50 for proliferation arrest of BAE cells): 0.16 ± 0.03 µM | IC50 [4]: ~2 µM | Side-effects of o-GSAO administration ([5]; 1 mg/kg/day s.c., day 1): nil | Side-effects of o-GSAO administration ([5]; 1 mg/kg/day s.c., day 2): ruffled fur; mild hyperactivity^b | Side-effects of o-GSAO administration ([5]; 1 mg/kg/day s.c., day 3): ruffled fur; mild hyperactivity^b | Side-effects of o-GSAO administration ([5]; 1 mg/kg/day s.c., day 4): ruffled fur; mild hyperactivity^b | Side-effects of o-GSAO administration ([5]; 1 mg/kg/day s.c., day 5): ruffled fur; hyperactivity; clonic | Side-effects of o-GSAO administration ([5]; 1 mg/kg/day s.c., day 6): ruffled fur; hyperactivity; clonic | Side-effects of o-GSAO administration ([5]; 1 mg/kg/day s.c., day 7): ruffled fur; hyperactivity; clonic | Side-effects of o-GSAO administration ([5]; 1 mg/kg/day s.c., day 8): ruffled fur; hyperactivity^b | Side-effects of o-GSAO administration ([5]; 1 mg/kg/day s.c., day 9): ruffled fur; mild hyperactivity^b | Side-effects of o-GSAO administration ([5]; 1 mg/kg/day s.c., day 10): ruffled fur; mild hyperactivity^b | Side-effects of o-GSAO administration ([5]; 1 mg/kg/day s.c., day 11): ruffled fur; mild hyperactivity^b | Side-effects of o-GSAO administration ([5]; 1 mg/kg/day s.c., day 13): nil | Side-effects of o-GSAO administration ([5]; 1 mg/kg/day s.c., day 14): nil | Side-effects of o-GSAO administration ([5]; 10 mg/kg/day s.c., day 1): ruffled fur; hyperactivity; mild | Side-effects of o-GSAO administration ([5]; 10 mg/kg/day s.c., day 2): ruffled fur; mild hyperactivity^b | Side-effects of o-GSAO administration ([5]; 10 mg/kg/day s.c., day 3): ruffled fur; mild hyperactivity^b | Side-effects of o-GSAO administration ([5]; 10 mg/kg/day s.c., day 4): ruffled fur; mild hyperactivity^b | Side-effects of o-GSAO administration ([5]; 10 mg/kg/day s.c., day 5): ruffled fur; hyperactivity; clonic | Side-effects of o-GSAO administration ([5]; 10 mg/kg/day s.c., day 6): ruffled fur; hyperactivity; clonic | Side-effects of o-GSAO administration ([5]; 10 mg/kg/day s.c., day 7): ruffled fur; hyperactivity; clonic | Side-effects of o-GSAO administration ([5]; 10 mg/kg/day s.c., day 8): ruffled fur; hyperactivity^b | Side-effects of o-GSAO administration ([5]; 10 mg/kg/day s.c., day 9): ruffled fur; mild hyperactivity^b | Side-effects of o-GSAO administration ([5]; 10 mg/kg/day s.c., day 10): ruffled fur; mild hyperactivity^b | Side-effects of o-GSAO administration ([5]; 10 mg/kg/day s.c., day 11): ruffled fur; mild hyperactivity^b | Side-effects of o-GSAO administration ([5]; 10 mg/kg/day s.c., day 13): skin necrosis at the injection site | Side-effects of o-GSAO administration ([5]; 10 mg/kg/day s.c., day 14): skin necrosis at the injection site | weight loss ([5]; 1 or 10 mg/kg/day s.c., Balb C mice): no weight loss observed | skin effects with repeated injections in the same area ([5]; Balb C mice): thickening of the skin and occasional necrosis | weight loss ([6]; 10 mg/kg/day o-GSAO s.c.): some weight loss | mice with medium ulcers [6, 9]: 4/11 | mice with severe ulcers [6, 9]: 3/11 | mice with necrosis and inflammation at sites of injection ([6]; 10 mg/kg/day o-GSAO s.c., treatment stopped at day 14): 7 out of 11 and 7 of 11 | behavioural side-effects in Balb C nude mice ([6]; 1 or 10 mg/kg/day s.c.): not observed | Fold Increase (BAE cells [7]): 53.2 | IC50 (BAE cells [8]): 0.16 µM

O=[As]c1ccc(NC(=O)CSC[C@H](NC(=O)CC[C@H](NC(=O)CCCCCNC(=O)CCCCCNC(=O)CCCC[C@@H]2SC[C@@H]3NC(=O)N[C@@H]32)C(=O)O)C(=O)NCC(=O)O)cc1 (stereo partly shown) [GSAO-B, 4-(N—(S—(N-(6-((6-((biotinoyl)amino)hexanoyl)amino)hexanoyl)-glutathionyl)acetyl)amino) phenylarsenoxide]
labelling of ANT with GSAO-B (ANT): Direct interaction
